Results from patent US7504394B2 (Wyeth, priority 2004, dated 2009).
Values after ≈ are worked out from the molar mass of the structure shown.

Key:
[1] = test system: uterine response; conditions: preclinical models of uterine stimulation; cited from earlier work
[2] = test system: ovariectomized rat model of osteopenia; conditions: cited from earlier work
[3] = test system: MCF-7 cell line (human breast cancer cell line); conditions: cited from earlier work
[4] = Equilibrium solubility of bazedoxifene ascorbate in 0.0005 M acetic acid at 37° C.; type: physicochemical; conditions: aqueous buffer, thermodynamic from solid, filtered 0.2 um, HPLC
Procedure: The samples were rotated at 50 rotation/min for 18 hours. All samples were filtered through 0.2 um (Nylon Acrodisc) filter. Samples were analyzed by HPLC.

solubility thermodynamic at 18 h [4]	SMILES	stimulation of uterine response [1]	effect on bone loss [2]	effect on cholesterol [2]	estrogen agonist/antagonist behaviour [3]
	Cc1c(-c2ccc(O)cc2)n(Cc2ccc(OCCN3CCCCCC3)cc2)c2ccc(O)cc12 [bazedoxifene acetate]	little or no stimulation of uterine response	estrogen agonist-like effect in preventing bone loss	reducing cholesterol	behaves as an estrogen antagonist
1660 µg/mL (≈ 3.53 mM)	Cc1c(-c2ccc(O)cc2)n(Cc2ccc(OCCN3CCCCCC3)cc2)c2ccc(O)cc12 [bazedoxifene ascorbate, 1-[4-(2-azepan-1-yl-ethoxy)-benzyl]-2-(4-hydroxy-phenyl)-3-methyl-1H-indol-5-ol]				
